Test results: patent publication US20250154686A1, “COMPOUND LIBRARY” (CHUGAI SEIYAKU KABUSHIKI KAISHA, priority 2021, published 2025)

Molecular target: T1, Bcl-2 protein (Recombinant Human Bcl-2 Protein) (Homo sapiens, UniProt P10415)
T1 construct: purchased Novus Biologicals NBP2-34889
Assay: AS-MS evaluation of binding of the Example 4 mixture library (1200 compounds/well) to Bcl-2, ASMS ratio (%)
Conditions: mixture library, value belongs to the MS peak assigned to the compound; for ASMS ratio (%) n = 1: replicate n = 1; for ASMS ratio (%) n = 2: replicate n = 2
Summary of the method: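 Recombinant human Bcl-2 at 20 μM final was exposed to a 1200-member compound pool (20 nM per compound) in pH 7.4 Tris-HCl buffer containing NaCl, Tween-20 and DTT. After 1 h at 23 °C, protein–ligand complexes passed SEC spin columns; LC/MS signals were compared with protein-free standard and blank samples to give ASMS ratio.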

T1 sequence (P10415 whole entry): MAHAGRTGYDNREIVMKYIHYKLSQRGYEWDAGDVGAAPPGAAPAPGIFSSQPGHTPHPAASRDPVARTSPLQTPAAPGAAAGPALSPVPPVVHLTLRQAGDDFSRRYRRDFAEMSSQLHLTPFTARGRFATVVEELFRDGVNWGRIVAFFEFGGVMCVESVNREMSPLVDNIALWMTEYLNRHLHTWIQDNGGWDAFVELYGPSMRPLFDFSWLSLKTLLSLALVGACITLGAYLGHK

ASMS ratio (%) n = 1 [%] | ASMS ratio (%) n = 2 [%] | Compound
0.0 | 0.0 | CCOc1cncc(-c2csc(C(=O)N3CCN(c4ccc(C(=O)NS(=O)(=O)C(C)(C)C)cc4)CC3)c2)c1 [Compound B2L024-01, N-tert-Butylsulfonyl-4-[4-[4-(5-ethoxypyridin-3-yl)thiophene-2-carbonyl]piperazin-1-yl]benzamide]
0.0 | 0.0 | CCOc1cncc(-c2ccc(C(=O)N3CCN(c4ccc(C(=O)NS(=O)(=O)C(C)(C)C)cc4)CC3)cc2C)c1 [Compound B2L026-01, N-tert-Butylsulfonyl-4-[4-[4-(5-ethoxypyridin-3-yl)-3-methylbenzoyl]piperazin-1-yl]benzamide]
0.0 | 0.0 | CCOc1cncc(-c2ccc(C(=O)N3CCN(c4ccc(C(=O)NS(=O)(=O)C(C)(C)C)cc4)CC3)cc2F)c1 [Compound B2L028-01, N-tert-Butylsulfonyl-4-[4-[4-(5-ethoxypyridin-3-yl)-3-fluorobenzoyl]piperazin-1-yl]benzamide]
0.0 | 0.0 | CCOc1cncc(C#Cc2ccccc2C(=O)N2CCN(c3ccc(C(=O)NS(=O)(=O)C(C)(C)C)cc3)CC2)c1 [Compound B2L030-01, N-tert-Butylsulfonyl-4-[4-[2-[2-(5-ethoxypyridin-3-yl)ethynyl]benzoyl]piperazin-1-yl]benzamide]
0.0 | 0.0 | CCOc1cccc(C#Cc2cncc(C(=O)N3CCN(c4ccc(C(=O)NS(=O)(=O)C(C)(C)C)cc4)CC3)c2)c1 [Compound B2L031-01, N-tert-Butylsulfonyl-4-[4-[5-[2-(3-ethoxyphenyl)ethynyl]pyridine-3-carbonyl]piperazin-1-yl]benzamide]
0.0 | 0.0 | CCOc1cccc(-c2ccccc2CCC(=O)N2CCN(c3ccc(C(=O)NS(=O)(=O)C(C)(C)C)cc3)CC2)c1 [Compound B2L033-01, N-tert-Butylsulfonyl-4-[4-[3-[2-(3-ethoxyphenyl)phenyl]propanoyl]piperazin-1-yl]benzamide]
1.6 | 3.5 | CCOc1cncc(-c2ccccc2CCC(=O)N2CCN(c3ccc(C(=O)NS(=O)(=O)C(C)(C)C)cc3)CC2)c1 [Compound B2L034-01, N-tert-Butylsulfonyl-4-[4-[3-[2-(5-ethoxypyridin-3-yl)phenyl]propanoyl]piperazin-1-yl]benzamide]
0.0 | 0.0 | CCOc1cncc(-c2ccc(C(=O)N3CCN(c4ccc(C(=O)NS(=O)(=O)C(C)(C)C)cc4)CC3)c3ccccc23)c1 [Compound B2L036-01, N-tert-Butylsulfonyl-4-[4-[4-(5-ethoxypyridin-3-yl)naphthalene-1-carbonyl]piperazin-1-yl]benzamide]
−0.2 | 1.0 | CCOc1cncc(-c2cc(C(=O)N3CCN(c4ccc(C(=O)NS(=O)(=O)C(C)(C)C)cc4)CC3)cc(C(F)(F)F)c2)c1 [Compound B2L040-01, N-tert-Butylsulfonyl-4-[4-[3-(5-ethoxypyridin-3-yl)-5-(trifluoromethyl)benzoyl]piperazin-1-yl]benzamide]
0.0 | 0.0 | CCOc1cccc(-c2ccccc2CN2CCN(c3ccc(C(=O)NS(=O)(=O)C(C)(C)C)cc3)CC2)c1 [Compound B2L045-01, N-tert-Butylsulfonyl-4-[4-[[2-(3-ethoxyphenyl)phenyl]methyl]piperazin-1-yl]benzamide]
0.0 | 0.0 | CCOc1cncc(-c2ccccc2CN2CCN(c3ccc(C(=O)NS(=O)(=O)C(C)(C)C)cc3)CC2)c1 [Compound B2L046-01]
0.0 | 0.0 | CCOc1cccc(-c2ccc(CN3CCN(c4ccc(C(=O)NS(=O)(=O)C(C)(C)C)cc4)CC3)cc2C)c1 [Compound B2L047-01, N-tert-Butylsulfonyl-4-[4-[[4-(3-ethoxyphenyl)-3-methylphenyl]methyl]piperazin-1-yl]benzamide]
3.9 | −5.0 | CCOc1cncc(-c2ccc(CN3CCN(c4ccc(C(=O)NS(=O)(=O)C(C)(C)C)cc4)CC3)cc2C)c1 [Compound B2L048-01, N-tert-Butylsulfonyl-4-[4-[[4-(5-ethoxypyridin-3-yl)-3-methylphenyl]methyl]piperazin-1-yl]benzamide]

More lines, now with the values behind:

Compound | ASMS ratio (%) n = 1 [%] | ASMS ratio (%) n = 2 [%]
CCOc1cncc(-c2cnn(-c3cc(C(=O)N4CCN(c5ccc(C(=O)NS(=O)(=O)C(C)(C)C)nn5)CC4)cc(C(F)(F)F)c3)c2)c1 [Compound B2L022-01, N-tert-Butylsulfonyl-6-[4-[3-[4-(5-ethoxypyridin-3-yl)pyrazol-1-yl]-5-(trifluoromethyl)benzoyl]piperazin-1-yl]pyridazine-3-carboxamide] | 0.0 | 0.0
CCOc1cccc(-c2csc(C(=O)N3CCN(c4ccc(C(=O)NS(=O)(=O)C(C)(C)C)cc4)CC3)c2)c1 [Compound B2L023-01, N-tert-Butylsulfonyl-4-[4-[4-(3-ethoxyphenyl)thiophene-2-carbonyl]piperazin-1-yl]benzamide] | 0.0 | 0.0
CCOc1cccc(-c2ccc(C(=O)N3CCN(c4ccc(C(=O)NS(=O)(=O)C(C)(C)C)cc4)CC3)cc2C)c1 [Compound B2L025-01, N-tert-Butylsulfonyl-4-[4-[4-(3-ethoxyphenyl)-3-methylbenzoyl]piperazin-1-yl]benzamide] | 0.0 | 0.0
CCOc1cccc(-c2ccc(C(=O)N3CCN(c4ccc(C(=O)NS(=O)(=O)C(C)(C)C)cc4)CC3)cc2F)c1 [Compound B2L027-01, N-tert-Butylsulfonyl-4-[4-[4-(3-ethoxyphenyl)-3-fluorobenzoyl]piperazin-1-yl]benzamide] | 0.0 | 0.0
CCOc1cccc(C#Cc2ccccc2C(=O)N2CCN(c3ccc(C(=O)NS(=O)(=O)C(C)(C)C)cc3)CC2)c1 [Compound B2L029-01, N-tert-Butylsulfonyl-4-[4-[2-[2-(3-ethoxyphenyl)ethynyl]benzoyl]piperazin-1-yl]benzamide] | 0.0 | –
CCOc1cncc(C#Cc2cncc(C(=O)N3CCN(c4ccc(C(=O)NS(=O)(=O)C(C)(C)C)cc4)CC3)c2)c1 [Compound B2L032-01, N-tert-Butylsulfonyl-4-[4-[5-[2-(5-ethoxypyridin-3-yl)ethynyl]pyridine-3-carbonyl]piperazin-1-yl]benzamide] | 0.0 | −1.0
CCOc1cccc(-c2ccc(C(=O)N3CCN(c4ccc(C(=O)NS(=O)(=O)C(C)(C)C)cc4)CC3)c3ccccc23)c1 [Compound B2L035-01, N-tert-Butylsulfonyl-4-[4-[4-(3-ethoxyphenyl)naphthalene-1-carbonyl]piperazin-1-yl]benzamide] | 0.0 | –
CCOc1cccc(-c2cc(C(=O)N3CCN(c4ccc(C(=O)NS(=O)(=O)C(C)(C)C)cc4)CC3)cc(C(C)(C)C)c2)c1 [Compound B2L037-01, 4-[4-[3-tert-Butyl-5-(3-ethoxyphenyl)benzoyl]piperazin-1-yl]-N-tert-butylsulfonylbenzamide] | 0.0 | 0.0
CCOc1cncc(-c2cc(C(=O)N3CCN(c4ccc(C(=O)NS(=O)(=O)C(C)(C)C)cc4)CC3)cc(C(C)(C)C)c2)c1 [Compound B2L038-01, 4-[4-[3-tert-Butyl-5-(5-ethoxypyridin-3-yl)benzoyl]piperazin-1-yl]-N-tert-butylsulfonylbenzamide] | 0.0 | 0.0
CCOc1cccc(-c2cc(C(=O)N3CCN(c4ccc(C(=O)NS(=O)(=O)C(C)(C)C)cc4)CC3)cc(C(F)(F)F)c2)c1 [Compound B2L039-01, N-tert-Butylsulfonyl-4-[4-[3-(3-ethoxyphenyl)-5-(trifluoromethyl)benzoyl]piperazin-1-yl]benzamide] | 0.0 | 0.0
CCOc1cccc(C#Cc2cc(C(=O)N3CCN(c4ccc(C(=O)NS(=O)(=O)C(C)(C)C)cc4)CC3)cc(C(F)(F)F)c2)c1 [Compound B2L041-01, N-tert-Butylsulfonyl-4-[4-[3-[2-(3-ethoxyphenyl)ethynyl]-5-(trifluoromethyl)benzoyl]piperazin-1-yl]benzamide] | 0.0 | –
CCOc1cncc(C#Cc2cc(C(=O)N3CCN(c4ccc(C(=O)NS(=O)(=O)C(C)(C)C)cc4)CC3)cc(C(F)(F)F)c2)c1 [Compound B2L042-01, N-tert-Butylsulfonyl-4-[4-[3-[2-(5-ethoxypyridin-3-yl)ethynyl]-5-(trifluoromethyl)benzoyl]piperazin-1-yl]benzamide] | 0.0 | 0.0
CCOc1cccc(-c2cnn(-c3cc(C(=O)N4CCN(c5ccc(C(=O)NS(=O)(=O)C(C)(C)C)cc5)CC4)cc(C(F)(F)F)c3)c2)c1 [Compound B2L043-01, N-tert-Butylsulfonyl-4-[4-[3-[4-(3-ethoxyphenyl)pyrazol-1-yl]-5-(trifluoromethyl)benzoyl]piperazin-1-yl]benzamide] | 0.0 | 0.0
CCOc1cncc(-c2cnn(-c3cc(C(=O)N4CCN(c5ccc(C(=O)NS(=O)(=O)C(C)(C)C)cc5)CC4)cc(C(F)(F)F)c3)c2)c1 [Compound B2L044-01, N-tert-Butylsulfonyl-4-[4-[3-[4-(5-ethoxypyridin-3-yl)pyrazol-1-yl]-5-(trifluoromethyl)benzoyl]piperazin-1-yl]benzamide] | 0.0 | 0.0
